Results taken from PubChem BioAssay AID330 (DTP/NCI, 2004).
Several values for one entry are separate records, joined by “and”; a condition that tells them apart may be missing. Identical values can stand only once. Inconclusive results and toxic doses are left out. How the source made its calls: active means survival T/C of 150% or more; inactive means T/C below 125% in these data.

Test system: P388 leukemia ip, CD2F1 mice, survival T/C
Test: NCI In Vivo Anticancer Drug Screen. Data for tumor model P388 Leukemia (intraperitoneal) in CD2F1 (CDF1) mice
Details: endpoint: median survival time, higher = longer survival
Method in brief: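 Mice carrying the transplanted tumor received test compound or vehicle. Survival was recorded in each group, and the value is the treated-group measurement divided by that of the vehicle-treated control group.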

[1] = dose: 50.0 mg/kg/injection, schedule: Q01DX009 (ip), vehicle: saline
[2] = dose: 100.0 mg/kg/injection, schedule: Q01DX009 (ip), vehicle: saline with Tween-80
[3] = dose: 100.0 mg/kg/injection, schedule: Q01DX009 (ip), vehicle: saline
[4] = dose: 200.0 mg/kg/injection, schedule: Q01DX009 (ip), vehicle: saline with Tween-80
[5] = dose: 50.0 mg/kg/injection, schedule: Q01DX009 (ip), vehicle: suspension in saline
[6] = dose: 100.0 mg/kg/injection, schedule: Q01DX009 (ip), vehicle: suspension in saline
[7] = dose: 50.0 mg/kg/injection, schedule: Q01DX009 (ip), vehicle: saline with Tween-80
[8] = dose: 60.0 mg/kg/injection, schedule: Q01DX005 (ip), vehicle: saline with Tween-80
[9] = dose: 50.0 mg/kg/injection, schedule: Q01DX005 (ip), vehicle: Klucel (hydroxypropylcellulose) (HPC)
[10] = dose: 100.0 mg/kg/injection, schedule: Q01DX005 (ip), vehicle: Klucel (hydroxypropylcellulose) (HPC)
[11] = dose: 50.0 mg/kg/injection, schedule: Q01DX005 (ip), vehicle: saline with Tween-80
[12] = dose: 100.0 mg/kg/injection, schedule: Q01DX005 (ip), vehicle: saline with Tween-80
[13] = dose: 200.0 mg/kg/injection, schedule: Q01DX005 (ip), vehicle: saline with Tween-80

Measured: T/C

O=[N+]([O-])c1ccc(Nc2ccc[n+]3c([O-])csc23)nc1
inactive: [1] 98 % of control | [2] 89 % of control | [3] 102 % of control | [4] 93 % of control

CC1NC(C(=O)O)Cc2c1[nH]c1ccccc21 (configuration not stated)
inactive: dose: 25.0 mg/kg/injection, schedule: Q01DX009 (ip), vehicle: suspension in saline 105 % of control | [5] 105 % of control | dose: 50.0 mg/kg/injection, schedule: Q04DX003 (ip), vehicle: saline 100 % of control | [6] 102 % of control | dose: 100.0 mg/kg/injection, schedule: Q04DX003 (ip), vehicle: saline 100 % of control | dose: 200.0 mg/kg/injection, schedule: Q04DX003 (ip), vehicle: saline 102 % of control

COc1ccc2cc1Oc1ccc(cc1)C[C@H]1c3cc(c(OC)cc3CCN1C)Oc1c(OC)c(OC)cc3c1[C@H](C2)N(C)CC3
inactive: dose: 12.5 mg/kg/injection, schedule: Q01DX009 (ip), vehicle: other 94 % of control and 95 % of control | dose: 25.0 mg/kg/injection, schedule: Q01DX009 (ip), vehicle: other 100 % of control and 97 % of control | dose: 25.0 mg/kg/injection, schedule: Q04DX003 (ip), vehicle: suspension in saline 98 % of control | dose: 50.0 mg/kg/injection, schedule: Q01DX009 (ip), vehicle: other 100 % of control and 97 % of control | dose: 50.0 mg/kg/injection, schedule: Q04DX003 (ip), vehicle: suspension in saline 88 % of control | dose: 100.0 mg/kg/injection, schedule: Q01DX009 (ip), vehicle: other 103 % of control | dose: 100.0 mg/kg/injection, schedule: Q04DX003 (ip), vehicle: suspension in saline 89 % of control | dose: 200.0 mg/kg/injection, schedule: Q04DX003 (ip), vehicle: suspension in saline 87 % of control

CSc1cccc(NC(=O)N2CCCCC2C)c1 (configuration not stated)
inactive: [7] 100 % of control | [2] 92 % of control | [4] 100 % of control

COC(=O)/C=C(\Br)C(=O)OC
inactive: dose: 1.56 mg/kg/injection, schedule: Q01DX009 (ip), vehicle: saline with Tween-80 106 % of control | dose: 3.12 mg/kg/injection, schedule: Q01DX009 (ip), vehicle: saline with Tween-80 98 % of control | dose: 6.25 mg/kg/injection, schedule: Q01DX009 (ip), vehicle: saline with Tween-80 101 % of control

CCOP(=O)(O)SP(=O)(O)OCC.[Zn+2]
inactive: dose: 25.0 mg/kg/injection, schedule: Q01DX009 (ip), vehicle: saline with Tween-80 109 % of control | [7] 103 % of control and 115 % of control

O=C1OC2(c3ccc(O)cc3Oc3cc(O)ccc32)C2C3C=CC(C3)C12 (configuration not stated)
inactive: dose: 60.0 mg/kg/injection, schedule: Q01DX005 (ip), vehicle: Klucel (hydroxypropylcellulose) (HPC) 100 % of control | dose: 120.0 mg/kg/injection, schedule: Q01DX005 (ip), vehicle: Klucel (hydroxypropylcellulose) (HPC) 104 % of control | dose: 240.0 mg/kg/injection, schedule: Q01DX005 (ip), vehicle: Klucel (hydroxypropylcellulose) (HPC) 100 % of control

O=C1CC(c2ccccc2)C(c2ccccc2)C1=O (configuration not stated)
inactive: dose: 12.5 mg/kg/injection, schedule: Q04DX003 (ip), vehicle: Klucel (hydroxypropylcellulose) (HPC) 107 % of control | dose: 25.0 mg/kg/injection, schedule: Q04DX003 (ip), vehicle: Klucel (hydroxypropylcellulose) (HPC) 102 % of control | dose: 50.0 mg/kg/injection, schedule: Q04DX003 (ip), vehicle: Klucel (hydroxypropylcellulose) (HPC) 102 % of control

Nc1nc(N2CCCCC2)c2nc(Cl)n(C3OC(CO)C(O)C3O)c2n1 (configuration not stated)
inactive: [8] 92 % of control | dose: 120.0 mg/kg/injection, schedule: Q01DX005 (ip), vehicle: saline with Tween-80 101 % of control | dose: 240.0 mg/kg/injection, schedule: Q01DX005 (ip), vehicle: saline with Tween-80 100 % of control

O=[N+]([O-])c1cnc(Sc2ncc([N+](=O)[O-])cn2)nc1
inactive: dose: 60.0 mg/kg/injection, schedule: Q01DX005 (ip), vehicle: saline 99 % of control | dose: 120.0 mg/kg/injection, schedule: Q01DX005 (ip), vehicle: saline 102 % of control | dose: 240.0 mg/kg/injection, schedule: Q01DX005 (ip), vehicle: saline 99 % of control

CCCCCCCCCCCCCCCC[N+](C)(C)CCN
inactive: dose: 12.5 mg/kg/injection, schedule: Q01DX009 (ip), vehicle: saline 93 % of control | dose: 25.0 mg/kg/injection, schedule: Q01DX009 (ip), vehicle: saline 99 % of control | [1] 106 % of control

COc1ccc(C[n+]2ccccc2C#N)cc1OC
inactive: [9] 103 % of control | [10] 107 % of control

COC(=O)c1n[nH]n(Cc2ccccc2)c1=O (tested in a mixture with another compound)
inactive: [9] 103 % of control | [10] 92 % of control | dose: 200.0 mg/kg/injection, schedule: Q01DX005 (ip), vehicle: Klucel (hydroxypropylcellulose) (HPC) 92 % of control

O=CC(=C\c1ccco1)/C(C=O)=C\c1ccco1
inactive: [11] 97 % of control | [12] 112 % of control

CC1(C)OC1CCl (configuration not stated)
inactive: [1] 107 % of control | [3] 102 % of control | dose: 200.0 mg/kg/injection, schedule: Q01DX009 (ip), vehicle: saline 101 % of control

CCOc1cccc(Cl)n1
inactive: [7] 104 % of control | [2] 100 % of control | [4] 90 % of control

C[n+]1ccc(C#N)c2ccccc21
inactive: dose: 3.75 mg/kg/injection, schedule: Q01DX009 (ip), vehicle: saline with Tween-80 95 % of control | dose: 7.5 mg/kg/injection, schedule: Q01DX009 (ip), vehicle: saline with Tween-80 109 % of control | dose: 15.0 mg/kg/injection, schedule: Q01DX009 (ip), vehicle: saline with Tween-80 118 % of control

COc1ccc2c(c1)CCC(Cc1ccc(Cl)cc1)C2c1ccc(OCCN2CCCC2)cc1 (configuration not stated)
inactive: dose: 6.25 mg/kg/injection, schedule: Q01DX005 (ip), vehicle: suspension in saline 100 % of control | dose: 12.5 mg/kg/injection, schedule: Q01DX005 (ip), vehicle: suspension in saline 98 % of control | dose: 25.0 mg/kg/injection, schedule: Q01DX005 (ip), vehicle: suspension in saline 98 % of control | dose: 50.0 mg/kg/injection, schedule: Q01DX005 (ip), vehicle: suspension in saline 100 % of control

CC(=O)Nc1ccc2cc(-c3ccc(Cl)cc3)c3nnnn3c2n1
inactive: [11] 96 % of control | [12] 94 % of control | [13] 93 % of control

CC1CCCC/C1=N/SC(c1ccccc1)(c1ccccc1)c1ccccc1 (configuration not stated)
inactive: dose: 100.0 mg/kg/injection, schedule: Q01DX001 (ip), vehicle: saline with Tween-80 91 % of control | dose: 200.0 mg/kg/injection, schedule: Q01DX001 (ip), vehicle: saline with Tween-80 89 % of control | dose: 400.0 mg/kg/injection, schedule: Q01DX001 (ip), vehicle: saline with Tween-80 87 % of control

CN(C)CCn1c2nc(=O)[nH]c(=O)c-2nc2ccccc21
inactive: dose: 6.25 mg/kg/injection, schedule: Q01DX005 (ip), vehicle: Klucel (hydroxypropylcellulose) (HPC) 93 % of control | dose: 12.5 mg/kg/injection, schedule: Q01DX005 (ip), vehicle: Klucel (hydroxypropylcellulose) (HPC) 100 % of control | dose: 25.0 mg/kg/injection, schedule: Q01DX005 (ip), vehicle: Klucel (hydroxypropylcellulose) (HPC) 101 % of control | [9] 98 % of control

CC(C(=O)O)c1ccc2oc(-c3ccc(Cl)cc3)nc2c1 (configuration not stated)
inactive: [5] 104 % of control | [6] 100 % of control | dose: 200.0 mg/kg/injection, schedule: Q01DX009 (ip), vehicle: suspension in saline 100 % of control

Cc1cc(Cl)cc2c1NC(=O)C2(O)C/C(=N/NC(=O)CC#N)c1cccc([N+](=O)[O-])c1 (configuration not stated)
inactive: [8] 93 % of control | [12] 103 % of control | [13] 101 % of control
